From the supplement of paper PMC8671470
Counter-ions that a name gives are not always drawn.

How the values were obtained:
Details in all cases: 72 h
LAMA-84 = assay: cell viability (% survival relative to DMSO control, bortezomib = 0%); higher = less cytotoxic
Procedure, shortened: (§1)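 In 384-well plates pre-printed with compounds at 1, 10, 100, 1000 or 10000 nM, duplicate wells received cells from 10 AML and 5 CML lines at densities within the linear growth range. The plates stayed at 37 °C with 5% CO2 for 72 h before CellTiter-Glo luminescence was recorded. Each entry is averaged percent survival. Scaling placed vehicle at 100% and a 10 µM positive control at 0%.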

Mono-Mac-6 = assay: as above
Procedure, shortened: as §1

BV-173 = assay: as above
Procedure, shortened: as §1

HL-60 = assay: area under dose-response curve (viability, 1 nM-10 uM) (fraction (0-1)); higher = more sensitive
Procedure, shortened: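 A rescreen of the full library used HL-60 cells in RPMI 1640 with 10% FBS on 384-well plates, run in duplicate at five tenfold concentrations (1–10,000 nM). Each screen included DMSO or 100 nM of one of three metabolic inhibitors and ran 72 h at 37 °C, 5% CO2. CellTiter-Glo viability was scaled between DMSO and 10 μM proteasome-inhibitor wells. Any area under the curve comes from four-parameter log-logistic fits with drc and PharmacoGx.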

[1] = co-treatment: GSK2194069 100 nM
[2] = co-treatment: pictilisib 100 nM

Row | SMILES | cell viability (LAMA-84; 1 nM) | cell viability (LAMA-84; 10 nM) | cell viability (LAMA-84; 100 nM) | cell viability (LAMA-84; 1000 nM) | cell viability (LAMA-84; 10000 nM) | cell viability (Mono-Mac-6; 1 nM) | cell viability (Mono-Mac-6; 10 nM) | cell viability (Mono-Mac-6; 100 nM) | cell viability (Mono-Mac-6; 1000 nM) | cell viability (Mono-Mac-6; 10000 nM) | cell viability (BV-173; 1 nM) | cell viability (BV-173; 10 nM) | cell viability (BV-173; 100 nM) | cell viability (BV-173; 1000 nM) | cell viability (BV-173; 10000 nM) | area under dose-response curve (HL-60; co-treatment: AZD3965 100 nM) | area under dose-response curve (HL-60; co-treatment: DMSO vehicle) | area under dose-response curve (HL-60; [1]) | area under dose-response curve (HL-60; [2])
1 | CN(CCCOc1ccc(Cc2ccccc2)cc1)CCC(=O)O | 110% | 119% | 95% | 98.2% | 91.9% | 106% | 90.1% | 101% | 107% | 89% | 96.8% | 98.4% | 100% | 99.4% | 95.8% | < 0.0301 | < 0.0301 | < 0.0301 | < 0.0301
2 | COc1ccc2c(NC(=O)Nc3cccc(C(F)(F)F)n3)ccnc2c1 | 102% | 100% | 105% | 100% | 100% | 108% | 92.3% | 95.7% | 94.9% | 97.1% | 104% | 93.6% | 111% | 102% | 87.4% | < 0.0301 | < 0.0301 | < 0.0301 | < 0.0301
3 | Cc1nc(-c2ccccc2)sc1C(=O)Nc1ccc(S(N)(=O)=O)cc1 | 107% | 99.9% | 102% | 96.2% | 111% | 121% | 102% | 98.7% | 97.3% | 108% | 115% | 103% | 85.1% | 97.8% | 109% | < 0.0301 | < 0.0301 | < 0.0301 | < 0.0301
4 | C=CC(=O)c1ccc(O)cc1 [4-Acryloylphenol] | 86.7% | 91.9% | 99.9% | 105% | 56.7% | 86.3% | 99.1% | 111% | 103% | 54.6% | 82.2% | 86.6% | 104% | 93% | -1.1% | < 0.0301 | < 0.0301 | < 0.0301 | < 0.0301
5 | O=c1cc(-c2ccccc2)oc2c1ccc1ccccc12 [Alpha-Naphtoflavone] | 103% | 95.9% | 103% | 93.5% | 94.4% | 92.7% | 90.3% | 93.6% | 111% | 113% | 105% | 92.1% | 105% | 111% | 108% | < 0.0301 | < 0.0301 | < 0.0301 | < 0.0301
6 | Cc1c(Cl)cccc1S(=O)(=O)Nc1nc(CC(=O)N2CCN(C)CC2)cs1 [BVT-2733] | 101% | 93.4% | 96.9% | 105% | 99.9% | 107% | 88% | 107% | 114% | 99.6% | 102% | 103% | 94.8% | 93.3% | 88.5% | < 0.0301 | < 0.0301 | < 0.0301 | < 0.0301
7 | CCc1oc2ccccc2c1C(=O)c1cc(Br)c(O)c(Br)c1 [Benzbromarone] | 103% | 98.7% | 96.3% | 96.1% | 107% | 102% | 95.3% | 106% | 102% | 126% | 106% | 94.1% | 117% | 95.9% | 127% | < 0.0301 | < 0.0301 | < 0.0301 | < 0.0301
8 | CCOC(=O)c1sc(NC(=O)c2ccco2)c(SC#N)c1C [CBR-5884] | 89.2% | 102% | 103% | 102% | 99.1% | 94.9% | 111% | 102% | 103% | 91.1% | 100% | 111% | 87.5% | 105% | 80% | < 0.0301 | < 0.0301 | < 0.0301 | < 0.0301
9 | CCCCCOC(=O)Nc1nc(=O)n([C@@H]2O[C@H](C)[C@@H](O)[C@H]2O)cc1F [Capecitabine] | 91.9% | 94.5% | 87.6% | 99% | 99.9% | 100% | 90.2% | 113% | 95.6% | 93.1% | 100% | 93.8% | 102% | 97.5% | 88.3% | < 0.0301 | < 0.0301 | < 0.0301 | < 0.0301
10 | Cc1ccc(-c2cc(C(F)(F)F)nn2-c2ccc(S(N)(=O)=O)cc2)cc1 [Celecoxib] | 98.6% | 106% | 94% | 93.7% | 79.6% | 104% | 101% | 105% | 104% | 75.3% | 104% | 93.2% | 86.4% | 84.9% | 83.2% | < 0.0301 | < 0.0301 | < 0.0301 | < 0.0301
11 | O=c1c(-c2ccc(O)cc2)coc2cc(O[C@@H]3O[C@H](CO)[C@@H](O)[C@H](O)[C@H]3O)ccc12 [Daidzin] | 102% | 91% | 96.8% | 99.2% | 97.9% | 90.8% | 88.2% | 94.6% | 107% | 83.2% | 94% | 87.4% | 92.4% | 125% | 91.8% | < 0.0301 | < 0.0301 | < 0.0301 | < 0.0301
12 | C[C@H]1c2cccc(O)c2C(=O)C2C(=O)[C@]3(O)C(=O)C(C(N)=O)C(=O)[C@@H](N(C)C)[C@@H]3[C@@H](O)[C@@H]21 (stereo not given in full) [Doxycycline] | 101% | 95.3% | 106% | 92% | 66.1% | 103% | 98.6% | 109% | 94.7% | 90.4% | 107% | 87.9% | 99.2% | 102% | 69.7% | < 0.0301 | < 0.0301 | < 0.0301 | < 0.0301
13 | OC[C@H]1NC[C@H](O)[C@@H](O)[C@@H]1O [Duvoglustat] | 84.3% | 98% | 106% | 88.3% | 106% | 102% | 107% | 105% | 78.9% | 104% | 96.5% | 85.3% | 104% | 75.6% | 96.5% | < 0.0301 | < 0.0301 | < 0.0301 | < 0.0301
14 | O=C(NCCN1CCC(n2c(O)nc3ccccc32)CC1)c1cc2cc(F)ccc2[nH]1 [FIPI] | 99.3% | 103% | 103% | 98.6% | 70.5% | 104% | 107% | 106% | 70.6% | 64.5% | 96.9% | 101% | 99.9% | 99.3% | 58.9% | < 0.0301 | < 0.0301 | < 0.0301 | < 0.0301
15 | CCN(CCO)CCCC(C)Nc1ccnc2cc(Cl)ccc12 (stereo not given) [Hydroxychloroquine sulfate] | 87% | 108% | 106% | 94.9% | 93.6% | 92.7% | 104% | 91.8% | 88.2% | 86.7% | 79.7% | 107% | 97.6% | 84.3% | 94.8% | < 0.0301 | < 0.0301 | < 0.0301 | < 0.0301
